PubChem BioAssay (NCI)
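These data come from cells grown in 96-well plates and exposed to compound for 48 hours at five concentrations. GI50 = concentration required for 50% inhibition of growth. TGI is the concentration that stops growth completely.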

Experiments:
Assay in all cases: NCI tumour cell line growth inhibition, 48 h
SR leukemia = system: SR leukemia
SN12C renal = system: SN12C renal
HL-60(TB) leukemia = system: HL-60(TB) leukemia
K-562 leukemia = system: K-562 leukemia
ACHN renal = system: ACHN renal
NCI-H460 lung = system: NCI-H460 lung
IGROV1 ovarian = system: IGROV1 ovarian
COLO 205 colon = system: COLO 205 colon
EKVX NSCLC = system: EKVX NSCLC
MDA-MB-435 = system: MDA-MB-435

| Compound | TGI (SR leukemia) | TGI (SN12C renal) | TGI (HL-60(TB) leukemia) | TGI (K-562 leukemia) | TGI (ACHN renal) | TGI (NCI-H460 lung) | TGI (IGROV1 ovarian) | TGI (COLO 205 colon) | TGI (EKVX NSCLC) | GI50 (SR leukemia) | GI50 (SN12C renal) | GI50 (MDA-MB-435) | TGI (MDA-MB-435) | GI50 (HL-60(TB) leukemia) | GI50 (K-562 leukemia) | GI50 (ACHN renal) | GI50 (NCI-H460 lung) | GI50 (IGROV1 ovarian) | GI50 (COLO 205 colon) | GI50 (EKVX NSCLC) |
| --- | --- | --- | --- | --- | --- | --- | --- | --- | --- | --- | --- | --- | --- | --- | --- | --- | --- | --- | --- | --- |
| CCOc1cc2c(cc1OC)c[n+](C)c1c3cc(OC)c(OC)cc3ccc21 | > 100 µM | > 100 µM | 32.2 µM | > 49 µM | > 100 µM | > 100 µM | > 100 µM | > 100 µM | > 100 µM |  |  |  |  |  |  |  |  |  |  |  |
| COc1ccccc1C1C(C#N)=C(N)SC(N)=C1C#N | 83 µM | 42 µM | > 100 µM | > 100 µM | > 100 µM | > 100 µM | 70 µM | > 100 µM | > 100 µM | 16.3 µM | 15.5 µM | 52.8 µM | > 100 µM | 50.3 µM | 41.8 µM | 65.1 µM | 49.8 µM | 11.1 µM | > 100 µM | > 100 µM |
| CCOC(=O)c1ccc(N2C(=O)/C(=C/c3ccc(N(CCC#N)CCC#N)cc3)N=C2c2cc([N+](=O)[O-])ccc2Cl)cc1 | > 100 µM | > 100 µM |  | > 100 µM | > 100 µM |  | > 100 µM | > 100 µM | > 100 µM |  |  |  |  |  |  |  |  |  |  |  |
| CC1OC1C(=O)P(=O)(O)O (centres undefined) | > 100 µM | > 100 µM | > 100 µM | > 100 µM | > 100 µM | > 100 µM | > 100 µM | > 100 µM | > 100 µM |  |  |  | > 100 µM |  |  |  |  |  |  |  |
| OC1CCN2Cc3ccccc3N=C12 (centres undefined) |  | > 100 µM | > 100 µM | > 100 µM | > 100 µM | > 100 µM |  | > 100 µM | > 100 µM |  |  |  | > 100 µM |  |  |  |  |  |  |  |
| NCC(=O)N[C@H]1c2ccsc2/C(=N/O)[C@H]1O | > 100 µM | > 100 µM | > 100 µM | > 100 µM |  | > 100 µM | > 100 µM | > 100 µM | > 100 µM |  |  |  | > 100 µM |  |  |  |  |  |  |  |
| Cc1ccccc1NC(=O)C(=O)C(C1OC(=O)c2ccccc21)[N+](=O)[O-] (centres undefined) | > 100 µM | > 100 µM | > 100 µM | > 100 µM | > 100 µM | > 100 µM | > 100 µM | > 100 µM | > 100 µM |  |  |  |  |  |  |  |  |  |  |  |
| COC1CCC(O)C(CO)O1 (centres undefined) | > 100 µM | > 100 µM | 87 µM | 47.6 µM | > 100 µM | > 100 µM | 61.2 µM |  | > 100 µM |  |  |  |  |  |  |  |  |  |  |  |
| C[N+](C)(N)Cc1nc(-c2ccc(Cl)cc2)no1 | > 100 µM | > 100 µM | > 100 µM | > 100 µM | > 100 µM | > 100 µM | > 100 µM | > 100 µM | > 100 µM |  |  |  | > 100 µM |  |  |  |  |  |  |  |
| O=C(O)CSC1=NCCN1 | > 100 µM | > 100 µM |  | > 100 µM | > 100 µM | > 100 µM | > 100 µM | > 100 µM | > 100 µM |  |  |  | > 100 µM |  |  |  |  |  |  |  |
